Assays:
IL-6 = assay: Reduction of IL-6 secretion in activated B cells (ELISA); assay type: cell-based; conditions: 100 ng/me of peptide; EBV-infected B cells stimulated with anti-CD150; ELISA of culture supernatant
Procedure: (§1) In order to determine the activity of the novel peptides synthesized in Example 1 for reducing the secretion of inflammatory cytokines, the activated pathogenic B cells were treated with each of the 18 types of synthesized novel peptides and the reduction in secretion of inflammatory cytokines from the B cells was monitored.
(§2) Specifically, in order to determine whether the novel peptides could weaken the pathogenic B cells which are involved in the development of disease symptoms, the in vitro B cells model which is similar to the joint infiltrative B cells of rheumatoid arthritis was used. The activated pathogenic B cell was generated by stimulating Ebstein Barr virus (EBV)-infected B cells with anti-CD150 antibodies, and the cells were treated with […] of each of the 18 types of novel peptide.
(§3) In order to confirm the effect of 18 types of novel peptides in reducing inflammatory cytokines, the secretion amount of various cytokines (IL-1A, IL-1B, IL-2, IL-4, IL-5, IL-6, IL-8, IL-10, IL-12A, IL-13, IL-17A, GM-CSF, IL-34) secreted from the activated B cells was measured. The supernatants of B cell culture were analyzed enzyme-linked immunosorbent assay (ELISA), and the difference in absorbance (450 nm-570 nm) of the color developing reagent was measured as test results. Based on the measured difference in absorbance (450 nm-570 nm) of the color developing reagent, the absorbance of cytokines secreted when treated with the 18 types of novel […] was calculated in percentage, while setting the absorbance corresponding to the cytokines secreted from the activated B cells stimulated by anti-CD150 as 100%.

IL-5 = assay: Reduction of IL-5 secretion in activated B cells (ELISA); assay type: cell-based; conditions: 100 ng/me of peptide; EBV-infected B cells stimulated with anti-CD150; ELISA of culture supernatant
Procedure: as §1, §2, §3

IL-2 = assay: Reduction of IL-2 secretion in activated B cells (ELISA); assay type: cell-based; conditions: 100 ng/me of peptide; EBV-infected B cells stimulated with anti-CD150; ELISA of culture supernatant
Procedure: as §1, §2, §3

IL-17A = assay: Reduction of IL-17A secretion in activated B cells (ELISA); assay type: cell-based; conditions: 100 ng/me of peptide; EBV-infected B cells stimulated with anti-CD150; ELISA of culture supernatant
Procedure: as §1, §2, §3

IL-1A = assay: Reduction of IL-1A secretion in activated B cells (ELISA); assay type: cell-based; conditions: 100 ng/me of peptide; EBV-infected B cells stimulated with anti-CD150; ELISA of culture supernatant
Procedure: as §1, §2, §3

IL-8 = assay: Reduction of IL-8 secretion in activated B cells (ELISA); assay type: cell-based; conditions: 100 ng/me of peptide; EBV-infected B cells stimulated with anti-CD150; ELISA of culture supernatant
Procedure: as §1, §2, §3

IL-12A = assay: Reduction of IL-12A secretion in activated B cells (ELISA); assay type: cell-based; conditions: 100 ng/me of peptide; EBV-infected B cells stimulated with anti-CD150; ELISA of culture supernatant
Procedure: as §1, §2, §3

IL-13 = assay: Reduction of IL-13 secretion in activated B cells (ELISA); assay type: cell-based; conditions: 100 ng/me of peptide; EBV-infected B cells stimulated with anti-CD150; ELISA of culture supernatant
Procedure: as §1, §2, §3

GM-CSF = assay: Reduction of GM-CSF secretion in activated B cells (ELISA); assay type: cell-based; conditions: 100 ng/me of peptide; EBV-infected B cells stimulated with anti-CD150; ELISA of culture supernatant
Procedure: as §1, §2, §3

[1] = tested on: TPA-induced ear edema mouse model; assay: TPA-induced ear edema mouse model; assay type: in vivo; conditions: 6 hours after TPA application, intraperitoneal, twice
From the text: The present inventors confirmed that the peptides of the present invention are effective in alleviating inflammation invivo, along with reduction of the secretion of inflammatory cytokines as confirmed in Example 2. To be specific, in order to identify the anti-inflammatory effect of the peptide SIS-1, which is a representative peptide of 18 types of novel peptides prepared in Example 1, the present inventors used the method for evaluating the mouse ear edema wherein 12-O-tetradecanoylphorbol-13-acetate (TPA) induces acute inflammation as described in the literature (Eur J Pharmacol. 2011: 15; 672(1-3):175-179).
The TPA-induced ear edema mouse model is an animal model where erythema and edema caused by acute inflammation can be observed and it was prepared by the following method. The 24 mice of 5-week-old ICR mouse ([…], mal, central laboratory animals, Korea) were divided into 6 mice per group, and their hairs of both ears were removed before applying the sample. […]
The anti-inflammatory effect of the peptide SIS-1 was determined by observing the degree of edema inhibition as compared to the control group injected with vehicle. After 6 hours of TPA application, pictures of both ears were taken to determine the degree of ear edema, and the degree of inflammation alleviated was determined by measuring the thickness and weight per certain area of ear.

IL-10 = assay: Reduction of IL-10 secretion in activated B cells (ELISA); assay type: cell-based; conditions: 100 ng/me of peptide; EBV-infected B cells stimulated with anti-CD150; ELISA of culture supernatant
Procedure: as §1, §2, §3

IL-1B = assay: Reduction of IL-1B secretion in activated B cells (ELISA); assay type: cell-based; conditions: 100 ng/me of peptide; EBV-infected B cells stimulated with anti-CD150; ELISA of culture supernatant
Procedure: as §1, §2, §3

[2] = tested on: antibodies specific to bovine type II collagen; assay: Serological analysis in collagen-induced arthritis mice (ELISA); assay type: in vivo, mouse; conditions: serum of CIA mice
Procedure: In order to determine the therapeutic effect of the novel peptide SIS-1 for arthritis, enzyme-linked immunosorbent assay (ELISA) was performed to measure the antibodies specific to bovine type II collagen with the serological test. As mentioned in the literature, IgG antibody, known as the rheumatoid factor (RF), or subtype of IgG (IgG1 and IgG2a) and IgM autoantibody are known to form immune complexes, cause inflammation, and develop the lesions of rheumatoid arthritis (Journal of Ethnopharmacology 112 (2007) 408).
After diluting the serum of each test group in a ratio of 1:25000 (IgG) or 1:10000 (IgG1, IgG2a, IgM), the titer of serum autoantibody specific to type II collagen was measured.

IL-4 = assay: Reduction of IL-4 secretion in activated B cells (ELISA); assay type: cell-based; conditions: 100 ng/me of peptide; EBV-infected B cells stimulated with anti-CD150; ELISA of culture supernatant
Procedure: as §1, §2, §3

IL-34 = assay: Reduction of IL-34 secretion in activated B cells (ELISA); assay type: cell-based; conditions: 100 ng/me of peptide; EBV-infected B cells stimulated with anti-CD150; ELISA of culture supernatant
Procedure: as §1, §2, §3

[3] = tested on: collagen-induced arthritis mouse model; assay: Collagen-induced arthritis mouse model; assay type: in vivo
Procedure: In order to investigate the therapeutic effect of the peptide SIS-1, which is a representative peptide of the 18 types of novel peptides prepared in Example 1 against a representative autoimmune disease, arthritis, the experiment was performed using the collagen-induced arthritis mouse model of the literature (Nature, 283, pp 666-668, 1980; Arthritis Rheum, 46, pp 793-801, 2002).
The collagen-induced arthritis (CIA) is the model with arthritis of autoimmune disease type having similar characteristics as human rheumatoid arthritis and it was prepared by the following method.
The 100 μg of bovine type II collagen (Chondrex four, United States) was emulsified by mixing it with Freund's complete adjuvant (Chondrex, USA), and 7-week-old DBA/1 mouse ([…], male, central laboratory animals, Korea) was immunized by injecting the emulsified collagen solution intradermally at the tail region. On the 14th day of the first immunization, 50 μg of bovine type II collagen (Chondrex four, United States) was emulsified by mixing it with Freund's complete adjuvant (Chondrex, USA), and the second immune (boosting) response was induced by injecting the same intradermally at the tail region.
The novel peptide SIS-1 and a control drug, dexamethasone (DEX), were intraperitoneally administered three times a week from the next day of inducing the second immune response, and the control group (CIA) was treated with PBS.
In order to monitor the development of arthritis, the thickness of foot was measured using loop handle thickness gauge (Mitutoyo) while observing the weight change and the level of pathogenesis. In addition, the severity of the joint inflammation was assessed three times a week by two observers without knowing the contents of the experiment. Assessment of arthritis was performed by adding the scores for four legs per one mouse according to the following criteria, based on the arthritis progression index by Rossoliniec, et al. and then by taking the average of the values measured by two observers. The score and criteria for assessing arthritis are as follows:
0 point: no edema or swelling
1 point: mild edema and redness confined to foot or ankle joint
2 points: mild edema and redness in ankle joint through metatarsal
3 points: moderate edema and redness in ankle joint through metatarsal
4 points: edema and redness through the whole leg, and appearance of acampsia
The maximum arthritis index is 4 points per leg, and the maximum disease index per mouse is 16.
In order to determine the damage in the cartilage of joints, the histological examination was performed after completion of the test. On the 9th week of the animal model test, after the test animal was killed, the hind leg of the mouse hind was fixed with 10% formalin and coated with paraffin after removing compounds of calcium from the bones. Joint section was prepared and stained with hematoxylin and eosin.

MSLPSPRDGRTDGRTDCTR (SIS-1 peptide)
Inhibition rate of each cytokine compared to CD150-stimulated EBV-t B cells (%) IL-6 (IL-6): 42.9% | Inhibition rate of each cytokine compared to CD150-stimulated EBV-t B cells (%) IL-5 (IL-5): 30.3% | Inhibition rate of each cytokine compared to CD150-stimulated EBV-t B cells (%) IL-2 (IL-2): 19.7% | Inhibition rate of each cytokine compared to CD150-stimulated EBV-t B cells (%) IL-17A (IL-17A): 63.6% | Inhibition rate of each cytokine compared to CD150-stimulated EBV-t B cells (%) IL-1A (IL-1A): 22.7% | Inhibition rate of each cytokine compared to CD150-stimulated EBV-t B cells (%) IL-8 (IL-8): 53.8% | Inhibition rate of each cytokine compared to CD150-stimulated EBV-t B cells (%) IL-12A (IL-12A): 43.5% | Inhibition rate of each cytokine compared to CD150-stimulated EBV-t B cells (%) IL-13 (IL-13): 37.6% | Inhibition rate of each cytokine compared to CD150-stimulated EBV-t B cells (%) GM-CSF (GM-CSF): 60.5% | erythema increased by TPA application [1]: reduced | inflammatory response (thickness and weight of ear increased by TPA edema) [1]: inhibited significantly | Inhibition rate of each cytokine compared to CD150-stimulated EBV-t B cells (%) IL-10 (IL-10): 47.6% | Inhibition rate of each cytokine compared to CD150-stimulated EBV-t B cells (%) IL-1B (IL-1B): 25.4% | reduction of autoantibodies compared with control drug DEX [2]: as effective as or superior than | Inhibition rate of each cytokine compared to CD150-stimulated EBV-t B cells (%) IL-4 (IL-4): 59.9% | Inhibition rate of each cytokine compared to CD150-stimulated EBV-t B cells (%) IL-34 (IL-34): 43.4% | onset of disease symptom ([3]; after second immunization, versus CIA group): delayed | mouse weight ([3]; after second immunization, intraperitoneal three times a week): maintained similar to that of Normal group | incidence of arthritis ([3]; by the end of the test, intraperitoneal three times a week): 87.5% | arthritis progression index ([3]; compared to the CIA group): reduced | swelling of ankle joints ([3]; compared to the CIA group): reduced | destruction of joints and cartilage (histology, hematoxylin and eosin) ([3]; hind leg joint sections, 9th week): maintained at similar level as the normal mice

Source: patent US9403874B2, “Peptides and use thereof” (IL YANG PHARM. CO.,LTD., priority 2012, dated 2016)
